In article PMC8747639, “Novel Angiotensin-Converting Enzyme Inhibitory Peptides Identified from Walnut Glutelin-1 Hydrolysates: Molecular Interaction, Stability, and Antihypertensive Effects” (Nutrients, 2021):
Each block holds one molecule with its values, some of them ahead of it. No end group written: not given here.

Experiments:
[1] = target: T1, angiotensin-converting enzyme (ACE) from rabbit lung (rabbit) (UniProt P12822)
T1 sequence: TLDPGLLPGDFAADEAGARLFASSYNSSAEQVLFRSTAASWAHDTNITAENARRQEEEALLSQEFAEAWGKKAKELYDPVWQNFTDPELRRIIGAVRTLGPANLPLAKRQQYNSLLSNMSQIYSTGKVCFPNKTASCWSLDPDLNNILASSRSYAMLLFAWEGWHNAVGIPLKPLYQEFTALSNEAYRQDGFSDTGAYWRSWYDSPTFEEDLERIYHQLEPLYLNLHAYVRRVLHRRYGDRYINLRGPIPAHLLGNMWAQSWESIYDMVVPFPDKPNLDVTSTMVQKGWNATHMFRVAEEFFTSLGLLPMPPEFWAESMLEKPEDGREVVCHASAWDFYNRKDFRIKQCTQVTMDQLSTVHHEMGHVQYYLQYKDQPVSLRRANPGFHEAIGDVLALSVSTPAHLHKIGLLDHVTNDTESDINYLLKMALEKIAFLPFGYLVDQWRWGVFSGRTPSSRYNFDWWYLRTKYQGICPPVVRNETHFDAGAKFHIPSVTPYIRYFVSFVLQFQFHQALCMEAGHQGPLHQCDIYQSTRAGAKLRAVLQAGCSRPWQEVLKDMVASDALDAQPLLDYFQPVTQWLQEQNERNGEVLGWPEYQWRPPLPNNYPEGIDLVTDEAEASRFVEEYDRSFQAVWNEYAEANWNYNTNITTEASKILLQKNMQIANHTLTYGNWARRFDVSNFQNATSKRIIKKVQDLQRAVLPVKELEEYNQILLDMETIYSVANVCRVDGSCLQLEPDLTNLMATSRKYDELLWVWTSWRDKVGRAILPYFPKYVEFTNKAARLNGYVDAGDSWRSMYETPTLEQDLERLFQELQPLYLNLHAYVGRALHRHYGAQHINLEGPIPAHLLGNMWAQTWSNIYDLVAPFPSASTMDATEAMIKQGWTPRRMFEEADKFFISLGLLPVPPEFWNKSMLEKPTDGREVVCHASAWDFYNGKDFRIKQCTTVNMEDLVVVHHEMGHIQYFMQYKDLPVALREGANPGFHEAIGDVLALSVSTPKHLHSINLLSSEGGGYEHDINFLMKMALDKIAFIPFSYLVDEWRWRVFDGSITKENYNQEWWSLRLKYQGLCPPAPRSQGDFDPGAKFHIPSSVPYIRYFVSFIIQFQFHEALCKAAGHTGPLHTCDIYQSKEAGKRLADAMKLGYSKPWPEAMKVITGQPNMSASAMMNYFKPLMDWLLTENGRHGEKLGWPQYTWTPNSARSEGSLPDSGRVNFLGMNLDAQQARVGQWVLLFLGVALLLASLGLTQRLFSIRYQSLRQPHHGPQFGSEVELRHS

[2] = test system: spontaneously hypertensive rats (SHRs); experiment: BP measurement after single oral administration in SHR (tail-cuff); assay type: in vivo, rat; conditions: single intragastric administration, 0-8 h
Method: (§1) Thirty 10-week-old male spontaneously hypertensive rats (SHRs) and five normal male rats of the same age were used for the experiment. The rats were placed at 25 °C ± 1 °C, relative humidity of 45–55% and a light/dark cycle for 12 h. SHRs were randomly divided into 6 groups after one week of adaptation, while rats in the normal group (NG) were used as controls. The administration was continued for 28 days.
(§2) Rats in the normal and SHR groups were given 1.0 mL of 0.9% saline per day, while the positive control group was given captopril (10 mg/kg body weight) per day. The ACE inhibitory peptides treatment groups’ low and high doses were fed orally with 5 and 15 mg/kg (based on their body weight) by dissolving the peptides in 1.0 mL of 0.9% normal saline. The rats’ BP was measured by the tail-cuff method. The systolic blood pressure (SBP), diastolic blood pressure (DBP), and heart rate of all rats were measured after a single oral administration (0–8 h) and weekly (0–4 weeks). All measurements were repeated at least three times so the average value could be calculated.

[3] = test system: serum ET-1, NO, ACE, Ang II, AGT, ALD; experiment: Serum ET-1, NO, ACE, Ang II, AGT and ALD in SHR (ELISA / NO kit); assay type: in vivo, rat; conditions: 28 days oral administration
Text: (§3) The Grain, Oil and Protein Engineering Laboratory of Shaanxi Normal University (Xi’an, China) provided the defatted walnut meal. ACE (from rabbit lung) and hippuryl-histidyl-leucine (HHL) were purchased from Sigma Co., St. Louis, MO, USA. Pepsin (3 × 10^3 U/g) was obtained from Solarbio Science & Technology, Co., Ltd. (Beijing, China). High-performance liquid chromatography grade acetonitrile and trifluoroacetic acid were purchased from Fischer Scientific Co. (Waltham, MA, USA). The enzyme-linked immunosorbent assay kit for the detection of ACE, angiotensinogen (AGT), aldosterone (ALD), and Endothelin-1(ET-1) was purchased from Jiangsu Jingmei Biotechnology Co., Ltd. (YanCheng, China). The enzyme-linked immunosorbent assay kit for the detection of Ang II was obtained from Shanghai Kexing Biotechnology Co., Ltd., (Shanghai, China). and the nitric oxide (NO) detection kit was a product of Nanjing Jiancheng Institute of Biological Engineering (Nanjing, China), and other chemical reagents used in the experiment were of analytical grade.
The upper serum samples were obtained by centrifugation at 3000× g at 4 °C for 10 min after the blood was taken from the abdominal aorta of all rats. The samples were stored at −20 °C, and the serum expression was detected using the ELISA kit (double antibody sandwich enzyme-linked immunosorbent assay).

pepsin and trypsin = experiment: GI digestion stability of the synthesized peptides (pepsin, trypsin), read out as ACE inhibitory activity; assay type: in vitro ADME; conditions: pepsin 1 mg/mL pH 2.0 37 °C 3 h, or trypsin 1.0 mg/mL pH 8.0 37 °C 4 h
Method: We conducted a GI digestion stability analysis of the synthesized peptides according to the method proposed by Khueychai et al. (2018) with slight modifications. Briefly, the peptide solution was incubated with 1 mg/mL of pepsin solution (0.1 M HCl, pH 2.0) at 37 °C for 3 h. Subsequently, the pH value of the mixed solution was adjusted to 8.0 with 1.0 M NaOH, and 1.0 mg/mL of trypsin added and incubated at 37 °C for 4 h. Finally, the ACE inhibitory activity of the reaction solution could be determined after boiling for 10 min, cooling to room temperature, and centrifuging for 15 min at 10,000× g.

[4] = test system: spontaneously hypertensive rats (SHRs); experiment: BP measurement during four weeks of oral administration in SHR (tail-cuff); assay type: in vivo, rat; conditions: daily oral
Method: as §1, §2

ACE (from rabbit lung) = target: T2, ACE (from rabbit lung) (Oryctolagus cuniculus, UniProt P12822); experiment: ACE inhibitory activity (HHL substrate, absorbance); assay type: biochemical
T2 construct: ACE (from rabbit lung) and hippuryl-histidyl-leucine (HHL) were purchased from Sigma Co; purchased Sigma Co., St. Louis, MO, USA; host or cells: rabbit lung (tissue-derived)
T2 sequence (P12822 34-1310): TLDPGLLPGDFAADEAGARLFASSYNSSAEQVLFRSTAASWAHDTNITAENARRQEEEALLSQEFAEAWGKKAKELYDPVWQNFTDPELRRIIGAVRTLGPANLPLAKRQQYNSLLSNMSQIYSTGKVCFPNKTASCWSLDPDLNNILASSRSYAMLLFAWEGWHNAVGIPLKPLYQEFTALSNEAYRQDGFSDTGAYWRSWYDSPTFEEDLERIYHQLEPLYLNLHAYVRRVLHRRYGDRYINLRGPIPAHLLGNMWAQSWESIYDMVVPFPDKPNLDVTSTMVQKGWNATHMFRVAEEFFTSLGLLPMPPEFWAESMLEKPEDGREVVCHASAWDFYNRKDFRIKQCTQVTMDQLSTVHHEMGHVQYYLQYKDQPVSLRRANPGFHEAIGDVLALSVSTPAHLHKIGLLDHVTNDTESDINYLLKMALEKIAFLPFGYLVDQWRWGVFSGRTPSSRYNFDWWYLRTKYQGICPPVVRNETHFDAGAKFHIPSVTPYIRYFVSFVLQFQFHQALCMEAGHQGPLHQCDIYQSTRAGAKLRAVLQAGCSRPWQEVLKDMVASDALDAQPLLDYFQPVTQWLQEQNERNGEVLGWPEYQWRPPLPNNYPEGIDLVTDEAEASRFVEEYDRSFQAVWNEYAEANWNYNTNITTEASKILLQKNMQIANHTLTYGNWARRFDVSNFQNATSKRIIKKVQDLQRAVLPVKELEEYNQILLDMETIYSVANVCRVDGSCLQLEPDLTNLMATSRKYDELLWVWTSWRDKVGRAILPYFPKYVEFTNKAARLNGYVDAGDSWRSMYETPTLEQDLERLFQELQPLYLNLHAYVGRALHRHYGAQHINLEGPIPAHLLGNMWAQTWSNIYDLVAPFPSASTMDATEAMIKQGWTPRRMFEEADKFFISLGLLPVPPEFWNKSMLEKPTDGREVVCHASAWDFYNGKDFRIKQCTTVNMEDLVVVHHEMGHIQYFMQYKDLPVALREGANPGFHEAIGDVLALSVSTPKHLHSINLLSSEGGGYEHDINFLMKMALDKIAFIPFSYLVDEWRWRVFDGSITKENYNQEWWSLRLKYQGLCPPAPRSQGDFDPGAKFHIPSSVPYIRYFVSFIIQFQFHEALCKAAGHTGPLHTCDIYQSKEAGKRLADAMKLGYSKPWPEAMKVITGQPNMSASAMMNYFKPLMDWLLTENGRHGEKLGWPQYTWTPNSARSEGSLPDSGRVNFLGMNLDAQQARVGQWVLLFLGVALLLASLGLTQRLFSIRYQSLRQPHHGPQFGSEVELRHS
Text: as §3
Following a previous method reported by Zheng et al. (2017), we could determine the ACE inhibitory activity of glutelin-1 hydrolysate, separated fractions, active peptides, and all the other samples with 1.0 mg/mL Captopril as a positive control. The IC50 value (the concentrationof the inhibitory peptide (μM) had to inhibit 50% of the ACE activity) was calculated by linear regression of the curve.
The following formula was used to calculate the ACE inhibition rate (%): ACE inhibition rate(%)=(1-As/Ac)×100 where Ac represents ACE solution’s absorbance without an inhibitor and As represents the mixture containing samples.

[5] = Temperature, pH, metal ion, sugar and salt treatment stability of the synthesized peptides, read out as ACE inhibition rate; assay type: physicochemical; conditions: 1.0 mg/mL peptide
Method: The effect of temperature, pH, metal ion, sugar, and salt treatments on the stabilities of two synthesized peptides, were determined by incubating 1.0 mg/mL of VERGRRITSV and FVIEPNITPA at 20 °C, 40 °C, 60 °C, 80 °C, and 100 °C for 2 h; 37 °C for 2 h at pH 2, 4, 6, 8, and 10; with 100 μg/mL of KCl, CaCl2, ZnSO4, MgSO4, and FeSO4 solution at 37 °C for 2 h; with glucose solutions of 2%, 4%, 8%, and 12% at 37 °C for 30 min; with NaCl solutions of 2%, 4%, 8%, and 12% at 37 °C for 30 min, respectively. The ACE inhibition rate was measured immediately after incubation.

[6] = NaCl solutions 2-12%, 37 °C for 30 min, read-out ACE inhibition rate

IC50 of ACE inhibitory activity (enzyme activity assay, ACE from rabbit lung, substrate HHL) [1]: 6.36 µM
Molecule: Phe-Val-Ile-Glu-Pro-Asn-Ile-Thr-Pro-Ala (…) (peptide)

Molecule: FVIEPNITPA [FVIEPNITPA, Phe-Val-Ile-Glu-Pro-Asn-Ile-Thr-Pro-Ala]
maximal reduction in SBP ([2]; high dose 15 mg/kg): 30.4 mmHg
maximal reduction in SBP ([2]; low dose 5 mg/kg): 23.0 mmHg
serum ET-1 levels ([3]; ELISA, SHR control significantly higher than the other groups (p < 0.01)): low ET-1 levels
serum ACE level of the SHR control group compared with the treated group ([3]; ELISA, p < 0.05): significantly higher
serum AGT level of the SHR control group compared with the treated group ([3]; ELISA, p < 0.05): significantly higher
serum ALD level of the SHR control group compared with the treated group ([3]; ELISA, p < 0.05): significantly higher
serum AngII level of the SHR control group compared with the treated group ([3]; ELISA, p < 0.05): significantly higher
serum NO content ([3]; NO detection kit, SHR control significantly lower than treated groups (p < 0.05)): equivalent to that of the captopril group
ACE inhibitory activity under pepsin or trypsin digestion (pepsin and trypsin): could still maintain high ACE inhibitory activity
SBP compared with the SHRs group after one week of oral administration ([4]; captopril 10 mg/kg, peptides 5 and 15 mg/kg, p < 0.01): significantly lower
DBP course during continuous administration ([4]; captopril 10 mg/kg, peptides low dose 5 mg/kg, decline reached a maximum in the second week): began to decrease after one week of continuous administration
DBP course during continuous administration ([4]; high dose 15 mg/kg): began to decrease in the second week after administration
IC50 (ACE (from rabbit lung); calculated by linear regression of the curve, read-out: IC50 on angiotensin converting enzyme (ACE)): 6.36 µM
ACE inhibitory activity compared among fractions or with the glutelin-1 hydrolysate (in words) (ACE (from rabbit lung); fractions from Sephadex G-15 (1.0 mg/mL) or RP-HPLC, control glutelin-1 hydrolysate before separation): highest ACE inhibitory activity
stability of ACE inhibitory activity with metal ions K+, Ca2+ and Mg2+ ([5]; 100 μg/mL KCl, CaCl2, MgSO4, 37 °C for 2 h, read-out ACE inhibition rate): showed stability
ACE inhibitory activity after temperature treatment ([5]; 20 °C-60 °C for 2 h, read-out ACE inhibition rate): did not change much
effect of change of pH value on ACE inhibitory activity ([5]; 37 °C for 2 h at pH 2, 4, 6, 8 and 10, read-out ACE inhibition rate): no significant effect
ACE inhibition rate after temperature treatment ([5]; 80 °C for 2 h): above 80%
ACE inhibition rate after temperature treatment ([5]; 100 °C for 2 h): about 70%
stability of ACE inhibitory activity under high-concentration salt conditions [5, 6]: less stable
stability of ACE inhibitory activity under low-concentration salt conditions [5, 6]: good stability
stability of ACE inhibitory activity at low glucose concentration ([5]; glucose solutions 2-12%, 37 °C for 30 min, low concentrations, read-out ACE inhibition rate): showed stability

IC50 of ACE inhibitory activity (enzyme activity assay, ACE from rabbit lung, substrate HHL) [1]: 6.82 µM
Molecule: VERGRRITSV [Val-Glu-Arg-Gly-Arg-Arg-Ile-Thr-Ser-Val (…)]
